Our source for the IC50 and EC50 values is patent US11286263B2, “Macrocyclic fluorine substituted indole derivatives” (The Broad Institute, Inc., priority 2017, dated 2022).

Where “and” joins values, the source holds several entries; their conditions need not be identical. Equal entries are not always repeated. Where two headings read alike, the source gives them in different places.

One data set has as its target BCL-XL (Homo sapiens (Human), UniProt Q07817). The experiment in a line: Protein-protein interaction assay BCL-XL/Bad BH3 peptide (BCL-XL assay), TR-FRET. The note with it: median. The class given is binding. On the procedure: Assay 2 Protein-Protein Interaction Assay: BCL-XL/Bad BH3 Peptide (BCL-XL Assay)
The dose-dependent inhibition by the compounds described in this invention of the interaction between BCL-XL and the BH3 domain of Bad (both human) was determined using a steady state binding competition assay with time-resolved fluorescence energy transfer (TR-FRET) readout. For that purpose BCL-XL (amino acids 1-212, C-terminal fused to a hexahistidine (6× His) tag (SEQ ID 3) and a synthetic Bad BH3-derived peptide of sequence Biotin-PEG2-PEG2-NLWAAQRYGRELRR-Nle-SDEFVDSFKK-amide (SEQ ID 4) served as protein receptor and tracer ligand respectively. The recombinant BCL-XL protein (expressed in Ecol) was purchased from BPS Bioscience (San Diego, Calif., USA). The Bad BH3-derived peptide can be obtained from e.g. Biosyntan (Berlin, Germany).
In the assay 11 different concentrations of each compound (0.1 nM, 0.33 nM, 1.1 nM, 3.8 nM, 13 nM, 44 nM, 0.15 μM, 0.51 μM, 1.7 μM, 5.9 μM and 20 μM) were typically measured as duplicates in the same microtiter plate. For that, 100-fold concentrated DMSO solutions were prepared by serial dilutions (1:3.4) of a 2 mM stock solution in a clear, 384-well microtiter plate (Greiner Bio-One, Frickenhausen, Germany). From there, 50 nl were transferred in a dark test plate (Greiner Bio-One, Frickenhausen, Germany). The assay was initiated by addition of 2 μl of a 2,5-fold concentrated His-BCL-XL solution (usually for a 1 nM end concentration in 5 μl reaction volume) in aqueous assay buffer [50 mM Tris/HCl pH 7, 100 mM sodium chloride (NaCl), 50 μM potassium fluoride (KF), 0.005% Tween-20, 2 mM DTT, 0.1% bovine gamma globulin (BGG)] to the compounds in the assay plate. This was followed by a 10-minute incubation step at 22° C. for pre-equilibration of the putative complex between His-BCL-XL and the compounds. After that, 3 μl of a 1.67-fold concentrated solution (in assay buffer) consisting of Bad BH3-derived peptide (1 nM end concentration) and TR-FRET detection reagents [1.67 nM anti-His-Eu cryptate and 1.67 nM streptavidin-XL665 (both from Cisbio Bioassays, Codolet, France)], were added.
The mixture was incubated in the dark for one hour at 22° C. and then overnight at 4° C. The formation of BCL-XL/Bad complexes was determined by measuring the resonance energy transfer of the anti-His-Eu-cryptate antibody to the streptavidin-XL665 present in the reaction. For that purpose, the fluorescence emission at 620 nm and 665 nm after excitation at 330-350 nm was measured in a TR-FRET measuring instrument, for instance a Rubystar or a Pherastar (both from BMG Lab Technologies, Offenburg, Germany) or a Viewlux (Perkin-Elmer). The ratio of the emission at 665 nm and at 622 nm was used as indicator of the amount of BCL-XL/Bad complexes present.
The resulting data (ratio) were normalized, taking 0% inhibition as the mean value of control measurements (usually 32 data points) where all reagents were included. In this case 50 nl DMSO were used instead of compounds. A 100% inhibition corresponded to the mean value of control measurements (usually 32 data points) where all reagents except BCL-XL were included. IC50 values were determined by regression analysis based on a 4 parameter equation (minimum, maximum, IC50, Hill; Y=Max+(Min−Max)/(1+(X/IC50)^Hill) using the Screener Software (Genedata).
On the technique in general: In TR-FRET formats the signal depends on donor and acceptor labels being close together.

Data set [1] has as its system SUDHL10. Description: Induction of caspase-3/7 activity, SUDHL10 (Assay 4). The class given is cell-based. The note with it: SUDHL10 cells. In a few lines:
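DLBCL lines treated with compounds for 3 h at 37° C.; caspase-3/7 activity read by Caspase-Glo 3/7 luminescence. Medium-only background subtracted; EC50 fitted with bottom fixed at 1 and top set to reference compound's maximal induction.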

A further data set relates to SUDHL5. Description: Induction of cytotoxicity, SUDHL5 (Assay 6). The note with it: read-out: IC50 Cytotox SUDHL5 [M] (median), SUDHL5 cells, 5 h, CellTiter-Glo.
In data set [2] the test system is SUDHL10. The experiment in a line: Induction of cytotoxicity, SUDHL10 (Assay 6). The note with it: read-out: IC50 Cytotox SUDHL10 [M] (median), SUDHL10 cells, 5 h, CellTiter-Glo.
The subject of the next data set is A2780. The experiment in a line: Antiproliferation assay A2780 (Assay 7). The note with it: A2780 cells, CellTiter-Glo, single determinations, read-out: IC50 Antiproli A2780. The class given is cell-based. Put shortly: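 Cells plated in treatment plates plus a day 0 reference plate; incubated 72 h at 37 °C; CellTiter-Glo added, 10 min incubation, luminescence read; day 0 plate read at time zero.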
A general note: Cellular ATP, detected with luciferase, serves as a proxy for viable cell number.

[3] abbreviates: Homo sapiens, SU-DHL10, 3 h, Caspase-Glo 3/7, median.

BCL-XL, sequence (Q07817 1-212): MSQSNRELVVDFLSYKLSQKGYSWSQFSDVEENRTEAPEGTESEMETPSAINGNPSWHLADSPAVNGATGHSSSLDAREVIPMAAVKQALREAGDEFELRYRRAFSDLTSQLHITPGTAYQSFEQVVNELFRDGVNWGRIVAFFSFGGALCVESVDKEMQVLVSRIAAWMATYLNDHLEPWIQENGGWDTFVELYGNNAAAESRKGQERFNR
Protocol for SUDHL5: In principle, compounds that induce apoptosis will concomitantly induce cell cytotoxicity. Therefore, cytotoxicity assays were run in parallel in SUDHL5 and SUDHL10 cells.
The different cell lines were plated in culture medium (RPMI 1640 [GIBCO #22400-089] supplemented with 10% Fetal Bovine Serum) at a density of 3,300 cells in 30 μl/well in a sterile, solid black, flat bottom, polystyrene, TC-treated 384-well microplate (Corning #3571) using Multidrop Combi Reagent Dispenser. As a control, medium without cells was also added to the plate. Cells were incubated in a humidified incubator at 37° C. overnight. On the next day, the cells were treated with compounds (stock solution, 10 mM in DMSO) using the HP D300 Digital Dispenser in a concentration range of 3.3×10e-5 M (33 μM) to 5×10e-9 M (5 nM) in a single-dot curve with at least 16 dilutions and a DMSO concentration of 0.33%. Rim wells were excluded. The cells were incubated for 5 h hours in a humidified incubator at 37° C. After this incubation, 30 μl of CellTiter-Glo® Luminescent Cell Viability reagent (Promega, G7573) was added to each well using the Multidrop Combi Reagent Dispenser, followed by 15 min incubation on a shaker at room temperature. Finally, luminescence was read at 0.1 ms, with a gain of 3000 using the PHERAstar FS microplate reader (BMG Labtech).
The Bella DRC Master Sheet was used to calculate IC50s, with fixed CI=0 and C0=1.

A word on the IC50: it is the point on the concentration scale where inhibition reaches its midpoint. By EC50 is commonly meant the concentration needed to bring the measured effect to its halfway point. A low value points to an effect from little substance. Take `Cc1c2c(nn1C)COC/C=C\Cn1c(C(=O)O)c(CCCOc3cccc4ccccc34)c3ccc(F)c-2c31` (racemic) [Example 1, (rac)-(11Z)-4-fluoro-2,3-dimethyl-7-[3-(naphthalen-1-yloxy)propyl]-2,10,13,15-tetrahydro-pyrazolo[4′,3′:9,10][1,6]oxazacycloundecino[8,7,6-hi]indole-8-carboxylic acid]: the IC50 on BCL-XL is above 20 µM; in the data set on SUDHL5 (Homo sapiens, SU-DHL-5, 5 h), 1.2e-06 M; with SUDHL10 [2] (Homo sapiens, SU-DHL10, 5 h), 3.8e-06 M; with A2780 (72 h, listed as 01), 21.1 µM; with A2780 (Homo sapiens, A2780, 72 h) it was above 33 µM. In the data set on SUDHL10 [1] (setting [3]), this compound came in with a concentration for a half-maximal effect (EC50) of 2.5 µM.
Consider `CCc1c2c(nn1C)COC/C=C\Cn1c(C(=O)O)c(CCCOc3cccc4ccccc34)c3ccc(F)c-2c31` (racemic) [Example 5, (rac)-(11Z)-3-ethyl-4-fluoro-2-methyl-7-[3-(naphthalen-1-yloxy)propyl]-2,10,13,15-tetrahydro-pyrazolo[4′,3′:9,10][1,6]oxazacycloundecino[8,7,6-hi]indole-8-carboxylic acid], for which the concentration for half-maximal inhibition (IC50) against BCL-XL was above 20 µM; in the data set on SUDHL5 (Homo sapiens, SU-DHL-5, 5 h), 1.5e-06 M; with SUDHL10 [2] (Homo sapiens, SU-DHL10, 5 h) it was 3.2e-06 M; in the data set on A2780 (72 h, listed as 05) it was 28.1 µM and 20.8 µM and 27.7 µM; with A2780 (Homo sapiens, A2780, 72 h), 25.4 µM. Further, the concentration giving a half-maximal response (EC50) in the data set on SUDHL10 [1] (setting [3]) worked out at 3.5 µM.
For the compound `Cc1nn(C)c2c1-c1c(F)ccc3c(CCCOc4cccc5ccccc45)c(C(=O)O)n(c13)C/C=C\COC2` (racemic) [Example 9, (rac)-(Z)-13-fluoro-10,12-dimethyl-1-(3-(naphthalen-1-yloxy)propyl)-4,7,9,10-tetrahydro-pyrazolo[4′,3′:9,10][1]oxa[6]azacycloundecino[8,7,6-hi]indole-2-carboxylic acid], the 50% inhibitory concentration (IC50) against BCL-XL is above 20 µM; in the data set with SUDHL5 (Homo sapiens, SU-DHL-5, 5 h), 2.9e-06 M; in the data set with SUDHL10 [2] (Homo sapiens, SU-DHL10, 5 h) it was 1.5e-05 M; with A2780 (72 h, listed as 09) it was 20.7 µM; in the data set on A2780 (Homo sapiens, A2780, 72 h) it was 23.1 µM. In the data set on SUDHL10 [1] (setting [3]), this compound returned an EC50 of 18 µM.
Turning to `Cc1nn(C)c2c1-c1c(F)ccc3c(CCCOc4cccc5ccccc45)c(C(=O)O)n(c13)CCCCOC2` (racemic) [Example 10, (rac)-13-fluoro-10,12-dimethyl-1-(3-(naphthalen-1-yloxy)propyl)-4,5,6,7,9,10-hexahydro-pyrazolo[4′,3′:9,10][1]oxa[6]azacycloundecino[8,7,6-hi]indole-2-carboxylic acid], the IC50 was above 20 µM at BCL-XL; 1.8e-06 M in the data set with SUDHL5 (Homo sapiens, SU-DHL-5, 5 h); 3.6e-06 M with SUDHL10 [2] (Homo sapiens, SU-DHL10, 5 h); above 33 µM with A2780 (Homo sapiens, A2780, 72 h). In the data set on SUDHL10 [1] (setting [3]), this compound returned an EC50 of 7.8 µM.
Regarding `CCc1nn(C)c2c1-c1c(F)ccc3c(CCCOc4cccc5ccccc45)c(C(=O)O)n(c13)C/C=C\COC2` (racemic) [Example 11, (rac)-(Z)-12-ethyl-13-fluoro-10-methyl-1-(3-(naphthalen-1-yloxy)propyl)-4,7,9,10-tetrahydro-pyrazolo[4′,3′:9,10][1]oxa[6]azacycloundecino[8,7,6-hi]indole-2-carboxylic acid], the IC50 against BCL-XL was above 20 µM; in the data set with SUDHL5 (Homo sapiens, SU-DHL-5, 5 h), 2.3e-06 M; in the data set with SUDHL10 [2] (Homo sapiens, SU-DHL10, 5 h), 7.2e-06 M; in the data set on A2780 (72 h), 23.5 µM; in the data set on A2780 (Homo sapiens, A2780, 72 h), 15.3 µM. The same compound showed an EC50 in the data set on SUDHL10 [1] (setting [3]) of 6.5 µM.
Regarding `Cc1c2c(nn1C)COCCCCn1c(C(=O)O)c(CCCOc3cccc4c3CCC4)c3ccc(F)c-2c31` (racemic) [Example 19, (rac)-1-(3-((2,3-dihydro-1H-inden-4-yl)oxy)propyl)-13-fluoro-11,12-dimethyl-4,5,6,7,9,11-hexahydropyrazolo[4′,3′:9,10][1]oxa[6]azacycloundecino[8,7,6-hi]indole-2-carboxylic acid], the half-inhibitory concentration (IC50) on BCL-XL was above 20 µM; in the data set with SUDHL5 (Homo sapiens, SU-DHL-5, 5 h), 1.4e-06 M; in the data set on SUDHL10 [2] (Homo sapiens, SU-DHL10, 5 h) it was 2.1e-06 M; with A2780 (Homo sapiens, A2780, 72 h), 16.5 µM. The compound further gave an EC50 with SUDHL10 [1] (setting [3]) of 3.8 µM.
For the compound `Cc1c2c(nn1C)COCCCCn1c(C(=O)O)c(CCCOc3ccc(F)c4ccccc34)c3ccc(F)c-2c31` (single isomer, unassigned; enantiomer 1) [Example 16, 4-fluoro-7-{3-[(4-fluoronaphthalen-1-yl)oxy]propyl}-2,3-dimethyl-2,10,11,12,13,15-hexahydro-pyrazolo[4′,3′:9,10][1,6]oxazacycloundecino[8,7,6-hi]indole-8-carboxylic acid (enantiomer 1)], the concentration for half-maximal inhibition (IC50) against BCL-XL is above 20 µM; in the data set with SUDHL5, 1.4e-06 M; in the data set on SUDHL10 [2] it was 4.3e-06 M. For the same compound, a half-maximal response in the data set with SUDHL10 [1] (3 h, Caspase-Glo 3/7, median) (EC50) required 4.1 µM.
The like results for `CCc1c2c(nn1C)COCCCCn1c(C(=O)O)c(CCCOc3cccc4cc(F)ccc34)c3ccc(F)c-2c31` (single isomer, unassigned; enantiomer 1) [Example 24, 3-ethyl-4-fluoro-7-{3-[(6-fluoronaphthalen-1-yl)oxy]propyl}-2-methyl-2,10,11,12,13,15-hexahydropyrazolo[4′,3′:9,10][1,6]oxazacycloundecino[8,7,6-hi]indole-8-carboxylic acid (enantiomer 1)] were, in that order, above 20 µM, 3.9e-07 M, 6.8e-07 M and 0.54 µM.
The like results for `CCc1nn(C)c2c1-c1c(F)ccc3c(CCCOc4ccc(F)c5ccccc45)c(C(=O)O)n(c13)CCCCOC2` (single isomer, unassigned; enantiomer 1) [Example 42, 3-ethyl-4-fluoro-7-{3-[(4-fluoronaphthalen-1-yl)oxy]propyl}-1-methyl-1,10,11,12,13,15-hexahydropyrazolo[4′,3′:9,10][1,6]oxazacycloundecino[8,7,6-hi]indole-8-carboxylic acid (enantiomer 1)] were, in that order, above 20 µM, 2e-06 M, 9.6e-06 M and 6.3 µM.
As to “(rac)-1-(3-((2,3-dihydro-1H-inden-4-yl)oxy)propyl)-12-ethyl-13-fluoro-11-methyl-4,5,6,7,9,11-hexahydropyrazolo[4′,3′:9,10][1]oxa[6]azacycloundecino[8,7,6-hi]indole-2-carboxylic acid [Example 30]”, the values for the IC50 on BCL-XL and in the data set on A2780 (72 h) were above 20 µM and 11.2 µM, respectively. At SUDHL10 [1] (3 h, Caspase-Glo 3/7, median), the concentration giving a half-maximal response (EC50) was 1.7 µM.
